Experimental findings from patent US9868722B2, “Monocyclic pyrimidine/pyridine compounds as inhibitors of P97 complex” (Cleave Biosciences, Inc., priority 2013, dated 2018) are described below.

Molecules are shown by their SMILES. Where only a bound is given, the exact number is not on record here.

One data set deals with p97 (Homo sapiens, UniProt P55072). As to the kind of experiment: P97 ATPase biochemical assay (ADP Glo). Particulars: 20 nM p97, 20 uM ATP, 37 degC 15 min. The procedure:
The ATPase assay is performed according the following protocol: Purified enzyme (20 nM p97), substrate (20 μM ATP) and a dose titration of compounds are mixed in buffer (50 mM TRIS pH 7.5, 20 mM MgCl2, 0.02% TX-100, 1 mM DTT, 0.2% (v/v) glycerol) and incubated at 37° C. for 15 minutes. The reaction is terminated and the level of product generated is measured using the ADP Glo Assay Kit (Promega, Madison Wis.). Plotting product generated versus compound concentration and using a four-parameter fit model generates an IC50 value for each compounds.
The p97 assay is an initial screening assay used to determine inhibitory activity of the monocyclic pyrimidine compounds of the invention against the p97 complex. As discussed above, inhibition of activity of the p97 proteosome complex can enable apoptosis and cause elimination of neoplastic cells (cancer cells). The method follows that of Christianson in Nat. Cell Biol., (2011) 14:93.
Assay Buffer is a mixture of 50 mM TRIS pH 7.5, 20 mM MgCl2, 0.02% TX-100, 1 mM DTT and 0.2% (v/v) Glycerol. The well plate is Platetype: Corning 3674, 384w plate. The identification kit is an ADP glo kit (Promega): stop buffer, detection reagent.
Serial dilute compound in DMSO in a 1:3.33-fold 10 point serial dilution.
0.5 μL compound serial diluted in DMSO (Final Conc. 10%)
2 μL ATP (Final Conc.=20 uM, diluted in assay buffer)
2.5 μL p97 (Final Conc.=20 nM, diluted in assay buffer)
Incubate at 37 degC for 15 min.
Add 5 μL of stop buffer, incubate at RT for 40 min.
Add 10 μL of detection reagent, incubate at RT for 30 min.
Read luminescence on Envision plate reader. • Upon obtaining the data from the luminescence reading, the data may be analyzed as follows:
Normalize luminescence data using no enzyme (full inhibition) and no compound (no inhibition) controls. Plot normalized luminescence data against log-transformed concentration values and fit to a sigmoidal curve to determine IC50 values (done in Collaborative Drug Discovery software).
The results are reported on the following Table for Examples A-EE and the E1-E4 compounds as 50 percent Inhibitory concentration at candidate doses of less than 30 nM, less than 100 nM, less than 300 nM and less than 1000 nM for the p97 inhibition assay.

The subject of data set [1] is K48 poly-Ubiquitin accumulation in A549 cells. Kind of data set: A549 K48 poly-ubiquitin accumulation immunofluorescence assay. It counts as cell-based. Particulars: Homo sapiens; A549 cells, 6 hr incubation, K48-Ub antibody; read-out: A549 K48 IC50. The procedure: Image-analysis is used to generate quantitative data from these assays that can be fit to a four-parameter sigmoid curve to derive IC50 values. Substrates of the ubiquitin-proteasome system, such as p53, are monitored after tumor cell lines are incubated with compounds for several hours. Accumulation of these proteins indicates an inhibition of proteasome-mediated degradation. Accumulation of lysine-48 chain linkage of poly-ubiquitin is also monitored by immunofluorescence as an indicator of ubiquitin-proteasome system inhibition. Both LC3 and SQSTM1 are mediators of autophagy. The localization and amounts of these proteins are monitored by immunofluorescence and report on the activity and inhibition of autophagy in response to p97 inhibition.
(§1) Plate 25 μL of A549 cells in every well of 384-well plate using multidrop.
Two (2) black plates for IF at 2500 cells/well
Serial dilute compounds with a 10 point 2-fold serial dilution in DMSO to make 250× stock compound solution Dilute compounds 1:125 in cell culture media to make a 2× solution Add 25 μl of dilution compounds to cell plates in well duplicates Put cells back in incubator (6 hr incubation for black plates, 72 hr incubation for white plates).
Incubate cells in black plates with compound at 37 degC for 6 hrs. add 15 μL of 16% Paraformaldehyde (PFA) directly into media of each well, incubate at room temp for 5 min, flick plate and wash in 50 μL of PBS block in 50 μL of Blocking Buffer for 30 minutes (can go up to several hours) Blocking buffer: 1×PBS, 1% BSA, 0.3% Triton-X100, Hoechst (1:10,000) incubate in 25 μL of primary antibody in blocking buffer at 4 degC over night […]
Secondary Antibodies: • AlexaFluor488 Goat anti-Rabbit 1:2,000 (Life Tech A11008) • AlexaFluor555 Goat anti-Mouse 1:2,000 (Life Tech A21422) incubate in 25 μl of secondary antibody (1:2,000) in blocking buffer for 1-2 hrs at room temp (alexafluor488-anti-Rabbit/alexafluor555-anti-Mouse) Image plates in high content microscope with 405 nm, 488 nm and 555 nm filters Nuclear counts and cellular intensities of each markers are measured using Hoechst as a nuclear marker with an automated image analysis protocol using Matlab software (Math Works) The results are reported on the following Table I for Examples A-EE and the E1-E4 compounds as 50 percent Inhibitory concentration at candidate doses of less than 1 μM, less than 3 μM and less than 10 μM for both of the K48 antibody and the p53 (CTG) antibody assays

Another data set deals with A549 cells. As to the kind of experiment: Cultured cancer cell viability assay (cell titer glo, A549 CTG). It counts as cell-based. The settings on record: Homo sapiens; A549 cells, 72 hr incubation, cell titer glo; read-out: A549 CTG IC50.
Source text: Anti-tumor effects are monitored in cultured cancer cells after several days of compound treatment. The cell titer glo assay (Promega) measures the amount of ATP present as a proxy for cellular viability. Cellular counting is done using high-content microscopy followed by image analysis. A hanging drop 3D-culture system (3D Biomatrix) is used followed by cell titer glo to measure growth in a tumor-like environment.
The cellular assay provides information about the anti-neoplastic activity of the compounds of the invention. The compounds are tested against cultured cancer cells to determine whether or not the compounds of the invention are capable of intersecting with cancer cells to minimize or eliminate such cells. The assay involves establishing colonies of such cells and then treating them with the test compound under specified conditions and analysis regime to determine results.
as §1
One (1) white plate for viability at 500 cells/well.
Serial dilute compounds with a 10 point 2-fold serial dilution in DMSO to make 250× stock compound solution
Dilute compounds 1:125 in cell culture media to make a 2× solution Add 25 μl of dilution compounds to cell plates in well duplicates
Put cells back in incubator (6 hr incubation for black plates, 72 hr incubation for white plates).
Thaw an aliquot of frozen cell titer glo (Promega G7572) at room temperature.
Add 45 mL of NaCl/PBS solution to 5 ml of cell titer glo (10×).
Remove white plates from incubator, leave at room temp for 30 minutes.
Add 25 μl of diluted cell titer glo to each well.
Shake plate for >1 minute.
Incubate plate for >5 minutes to stabilize luminescence. • Luminescence is stable for up to 3 hours.
Read luminescence on plate reader
The results are reported on the following Table I for Examples A-EE and the E1-E4 compounds as 50 percent Inhibitory concentration at candidate doses of less than 1 μM, less than 3 μM and less than 10 μM for both of the K48 antibody and the p53 (CTG) antibody assays
(In general: Cellular ATP, detected with luciferase, serves as a proxy for viable cell number.)

A further data set deals with Caco-2 cell monolayers. The settings on record: pH 7.4, range over 12 inter-day experiments.

The IC50 is the concentration at which inhibition is half-maximal.

Sequence of p97 (P55072 whole entry): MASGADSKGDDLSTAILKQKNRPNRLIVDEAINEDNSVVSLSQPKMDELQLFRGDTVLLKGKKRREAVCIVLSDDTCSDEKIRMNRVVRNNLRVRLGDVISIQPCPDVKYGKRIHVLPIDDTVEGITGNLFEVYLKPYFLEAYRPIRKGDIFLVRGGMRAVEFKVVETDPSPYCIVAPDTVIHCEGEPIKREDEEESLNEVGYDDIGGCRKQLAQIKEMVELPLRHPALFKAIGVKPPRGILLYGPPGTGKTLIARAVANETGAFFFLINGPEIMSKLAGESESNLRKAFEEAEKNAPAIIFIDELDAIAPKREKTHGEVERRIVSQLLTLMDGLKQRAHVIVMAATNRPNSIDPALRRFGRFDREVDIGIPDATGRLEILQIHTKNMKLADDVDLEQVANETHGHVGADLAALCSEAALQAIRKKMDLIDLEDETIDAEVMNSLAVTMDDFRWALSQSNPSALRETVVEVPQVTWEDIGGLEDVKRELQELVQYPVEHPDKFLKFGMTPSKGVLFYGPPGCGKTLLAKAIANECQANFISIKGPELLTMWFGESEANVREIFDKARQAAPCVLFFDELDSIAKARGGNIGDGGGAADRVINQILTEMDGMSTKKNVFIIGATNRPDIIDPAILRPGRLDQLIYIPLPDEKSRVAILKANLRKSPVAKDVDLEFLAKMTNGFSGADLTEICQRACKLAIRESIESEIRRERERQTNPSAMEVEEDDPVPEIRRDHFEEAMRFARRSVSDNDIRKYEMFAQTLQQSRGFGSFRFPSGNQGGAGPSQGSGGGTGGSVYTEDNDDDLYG

As for `Cc1cc2c(C(N)=O)cccc2n1-c1ncc(C(C)O)c(NCc2ccccc2)n1` (centres unmarked) [Example 34, 1-[4-(benzylamino)-5-(1-hydroxyethyl)pyrimidin-2-yl]-2-methyl-1H-indole-4-carboxamide], the IC50 is less than 30 nM against p97, less than 3000 nM in data set [1] and less than 3000 nM with A549 cells.
For the compound `Cc1cc2c(C(N)=O)cccc2n1-c1ncc(C(C)N)c(NCc2ccccc2)n1` (centres unmarked) [Example 35, 1-[5-(1-aminoethyl)-4-(benzylamino)pyrimidin-2-yl]-2-methyl-1H-indole-4-carboxamide], the values for the IC50 (against p97; in data set [1]; in the data set on A549 cells) were less than 100 nM, less than 10000 nM and less than 10000 nM, respectively.
For `CNCc1nc(-n2c(C)cc3c(C(N)=O)cccc32)nc(NCc2ccccc2)c1C` [Example 36, 1-[4-(benzylamino)-5-methyl-6-[(methylamino)methyl]pyrimidin-2-yl]-2-methyl-1H-indole-4-carboxamide], the figures for the half-inhibitory concentration (IC50) (against p97; in data set [1]; in the data set on A549 cells) were less than 100 nM, less than 10000 nM and less than 10000 nM, respectively.
Consider `COc1cnc(-n2c(C)cc3c(CN)cccc32)nc1NCc1ccccc1` [Example 37, 2-[4-(aminomethyl)-2-methyl-1H-indol-1-yl]-N-benzyl-5-methoxypyrimidin-4-amine], for which the IC50 against p97 was less than 1000 nM; in data set [1], less than 3000 nM; in the data set on A549 cells, less than 10000 nM.
Regarding `CC(C)NCC(O)COc1cccc2ccccc12` (centres unmarked) [Propranolol], the “Peff (×E-6 cm/sec) in pH 7.4 Caco-2, A B, Range” value in the data set with Caco-2 cell monolayers (A to B) was 18.50-36.80 ×E-6 cm/sec. In the data set on Caco-2 cell monolayers (B to A), the “Peff (×E-6 cm/sec) in pH 7.4 Caco-2, B A, Range” value is recorded as 16.30-31.40 ×E-6 cm/sec.
